Measurements taken from paper PMC9133015 (Nature Communications, 2022).
Several values for one entry are separate records, joined by “and”; a condition that tells them apart may be missing. Identical values can stand only once.

How the values were obtained:
DU145 cells [1] = assay: Transcriptome-wide RNA-sequencing; format: cell-based, human; details: DU145, YK-2-69 3 µM 48 h vs DMSO
DYRK4 = biological target: T1, DYRK4 (Homo sapiens, UniProt Q9NR20); assay: DYRKs kinase activity assay (33P-ATP, DYRKtide substrate): DYRK4; format: biochemical; details: for % Inhibition DYRK4: duplicates
T1 construct: purchased Reaction Biology Corporation (assay service)
T1 sequence (Q9NR20 1-520): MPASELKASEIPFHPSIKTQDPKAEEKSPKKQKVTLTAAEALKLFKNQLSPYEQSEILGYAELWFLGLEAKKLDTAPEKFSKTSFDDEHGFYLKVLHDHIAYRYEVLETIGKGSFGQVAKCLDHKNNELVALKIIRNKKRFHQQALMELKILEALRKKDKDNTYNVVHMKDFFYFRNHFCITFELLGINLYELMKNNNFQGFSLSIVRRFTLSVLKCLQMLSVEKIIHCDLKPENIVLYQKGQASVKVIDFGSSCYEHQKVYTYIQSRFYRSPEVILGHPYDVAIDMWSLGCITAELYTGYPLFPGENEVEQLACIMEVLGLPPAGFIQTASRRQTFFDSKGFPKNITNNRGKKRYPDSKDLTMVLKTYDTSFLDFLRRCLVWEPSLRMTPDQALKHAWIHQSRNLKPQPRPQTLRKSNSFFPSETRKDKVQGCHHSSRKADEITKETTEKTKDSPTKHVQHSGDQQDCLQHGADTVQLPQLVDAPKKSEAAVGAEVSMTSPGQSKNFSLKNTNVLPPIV

DYRK1A = biological target: T2, DYRK1A (Homo sapiens, UniProt Q13627); assay: DYRKs kinase activity assay (33P-ATP, DYRKtide substrate): DYRK1A; format: biochemical
T2 construct: purchased Reaction Biology Corporation (assay service)

[2] = biological target: T3, panel of 370 protein kinases (Homo sapiens, UniProt O60307); assay: Kinase inhibitor specificity profiling (Reaction Biology Corporation); format: biochemical; parameters: % Enzyme Activity (relative to DMSO controls): concentration or dose not given beside the values; details: 2 h, kinase MAST3; read-out: % Enzyme Activity (relative to DMSO controls)
T3 construct: purchased Reaction Biology Corporation (assay service)

[3] = biological target: T4, panel of 370 protein kinases (Homo sapiens, UniProt O14578); assay: as above; format: biochemical; parameters: % Enzyme Activity (relative to DMSO controls): concentration or dose not given beside the values; details: kinase STK21/CIT
T4 construct: purchased Reaction Biology Corporation (assay service)

[4] = biological target: T5, panel of 370 protein kinases (Homo sapiens, UniProt Q9HBY8); assay: as above; format: biochemical; parameters: % Enzyme Activity (relative to DMSO controls): concentration or dose not given beside the values; details: 2 h, kinase SGK2; read-out: % Enzyme Activity (relative to DMSO controls)
T5 construct: purchased Reaction Biology Corporation (assay service)

[5] = biological target: T6, panel of 370 protein kinases (Homo sapiens, UniProt P32298); assay: as above; format: biochemical; parameters: % Enzyme Activity (relative to DMSO controls): concentration or dose not given beside the values; details: 2 h, kinase GRK4; read-out: % Enzyme Activity (relative to DMSO controls)
T6 construct: purchased Reaction Biology Corporation (assay service)

[6] = biological target: T7, panel of 370 protein kinases (Homo sapiens, UniProt Q9UL54); assay: as above; format: biochemical; parameters: % Enzyme Activity (relative to DMSO controls): concentration or dose not given beside the values; details: 2 h, kinase TAOK2/TAO1; read-out: % Enzyme Activity (relative to DMSO controls)
T7 construct: purchased Reaction Biology Corporation (assay service)

p-4E-BP1 (Thr37/46) = assay: Western blotting analysis of indicated proteins in PCa cells; format: cell-based, human; details: 48 h treatment
22Rv1 cells = assay: Real-time quantitative PCR (RRS1, GRWD1, CCNG2, YPEL3 mRNA); format: cell-based, human; details: replicates
DU145 cells [7] = assay: as above; format: cell-based, human

T4 sequence (O14578 whole entry): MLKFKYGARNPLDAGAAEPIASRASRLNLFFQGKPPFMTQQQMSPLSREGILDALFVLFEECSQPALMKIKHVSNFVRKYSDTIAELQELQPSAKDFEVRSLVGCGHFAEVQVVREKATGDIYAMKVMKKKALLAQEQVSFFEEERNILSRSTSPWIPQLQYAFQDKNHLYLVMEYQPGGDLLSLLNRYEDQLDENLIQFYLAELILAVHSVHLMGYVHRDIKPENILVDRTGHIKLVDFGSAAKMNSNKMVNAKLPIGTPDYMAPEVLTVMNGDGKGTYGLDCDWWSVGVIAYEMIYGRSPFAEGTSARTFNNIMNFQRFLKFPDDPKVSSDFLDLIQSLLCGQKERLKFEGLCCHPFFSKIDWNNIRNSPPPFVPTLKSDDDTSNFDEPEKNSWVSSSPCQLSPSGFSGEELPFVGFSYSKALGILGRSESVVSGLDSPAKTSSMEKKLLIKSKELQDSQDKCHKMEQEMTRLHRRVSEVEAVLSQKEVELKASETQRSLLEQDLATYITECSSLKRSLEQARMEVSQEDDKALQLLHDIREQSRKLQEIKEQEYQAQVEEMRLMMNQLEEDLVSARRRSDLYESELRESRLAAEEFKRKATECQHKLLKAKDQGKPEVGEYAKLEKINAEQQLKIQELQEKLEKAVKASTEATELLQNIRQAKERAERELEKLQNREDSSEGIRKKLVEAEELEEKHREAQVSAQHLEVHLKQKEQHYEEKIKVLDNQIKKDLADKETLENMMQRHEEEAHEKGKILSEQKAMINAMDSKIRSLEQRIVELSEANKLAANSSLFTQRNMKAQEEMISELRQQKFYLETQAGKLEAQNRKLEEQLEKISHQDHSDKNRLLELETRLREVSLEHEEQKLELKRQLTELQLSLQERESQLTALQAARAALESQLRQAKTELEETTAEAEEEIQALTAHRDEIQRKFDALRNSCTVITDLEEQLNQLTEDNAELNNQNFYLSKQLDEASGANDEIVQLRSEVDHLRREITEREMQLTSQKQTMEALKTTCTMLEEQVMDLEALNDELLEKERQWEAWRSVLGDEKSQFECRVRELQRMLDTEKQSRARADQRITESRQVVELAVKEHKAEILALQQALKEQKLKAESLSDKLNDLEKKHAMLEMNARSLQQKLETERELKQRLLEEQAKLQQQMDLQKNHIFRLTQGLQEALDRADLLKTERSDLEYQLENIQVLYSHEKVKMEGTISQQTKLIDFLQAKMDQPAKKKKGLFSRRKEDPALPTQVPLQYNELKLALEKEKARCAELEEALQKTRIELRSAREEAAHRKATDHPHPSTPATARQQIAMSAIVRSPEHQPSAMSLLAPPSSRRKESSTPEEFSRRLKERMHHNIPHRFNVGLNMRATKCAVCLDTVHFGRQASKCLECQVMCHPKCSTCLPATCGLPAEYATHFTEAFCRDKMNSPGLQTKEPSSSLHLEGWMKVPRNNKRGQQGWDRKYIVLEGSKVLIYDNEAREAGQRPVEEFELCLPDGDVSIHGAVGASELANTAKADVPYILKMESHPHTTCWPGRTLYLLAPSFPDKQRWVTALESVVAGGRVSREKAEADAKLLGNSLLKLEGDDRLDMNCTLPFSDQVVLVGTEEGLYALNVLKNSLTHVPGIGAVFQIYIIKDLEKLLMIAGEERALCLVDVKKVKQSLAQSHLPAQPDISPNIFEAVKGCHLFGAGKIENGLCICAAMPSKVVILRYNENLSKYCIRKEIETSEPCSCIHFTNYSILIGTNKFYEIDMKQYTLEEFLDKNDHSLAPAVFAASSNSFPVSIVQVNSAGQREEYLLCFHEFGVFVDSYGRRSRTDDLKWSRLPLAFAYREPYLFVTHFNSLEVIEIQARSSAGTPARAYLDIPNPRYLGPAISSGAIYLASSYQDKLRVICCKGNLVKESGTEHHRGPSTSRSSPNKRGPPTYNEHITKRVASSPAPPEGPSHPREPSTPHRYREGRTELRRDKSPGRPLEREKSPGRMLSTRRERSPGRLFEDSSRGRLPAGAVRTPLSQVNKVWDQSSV
T7 sequence (Q9UL54 whole entry): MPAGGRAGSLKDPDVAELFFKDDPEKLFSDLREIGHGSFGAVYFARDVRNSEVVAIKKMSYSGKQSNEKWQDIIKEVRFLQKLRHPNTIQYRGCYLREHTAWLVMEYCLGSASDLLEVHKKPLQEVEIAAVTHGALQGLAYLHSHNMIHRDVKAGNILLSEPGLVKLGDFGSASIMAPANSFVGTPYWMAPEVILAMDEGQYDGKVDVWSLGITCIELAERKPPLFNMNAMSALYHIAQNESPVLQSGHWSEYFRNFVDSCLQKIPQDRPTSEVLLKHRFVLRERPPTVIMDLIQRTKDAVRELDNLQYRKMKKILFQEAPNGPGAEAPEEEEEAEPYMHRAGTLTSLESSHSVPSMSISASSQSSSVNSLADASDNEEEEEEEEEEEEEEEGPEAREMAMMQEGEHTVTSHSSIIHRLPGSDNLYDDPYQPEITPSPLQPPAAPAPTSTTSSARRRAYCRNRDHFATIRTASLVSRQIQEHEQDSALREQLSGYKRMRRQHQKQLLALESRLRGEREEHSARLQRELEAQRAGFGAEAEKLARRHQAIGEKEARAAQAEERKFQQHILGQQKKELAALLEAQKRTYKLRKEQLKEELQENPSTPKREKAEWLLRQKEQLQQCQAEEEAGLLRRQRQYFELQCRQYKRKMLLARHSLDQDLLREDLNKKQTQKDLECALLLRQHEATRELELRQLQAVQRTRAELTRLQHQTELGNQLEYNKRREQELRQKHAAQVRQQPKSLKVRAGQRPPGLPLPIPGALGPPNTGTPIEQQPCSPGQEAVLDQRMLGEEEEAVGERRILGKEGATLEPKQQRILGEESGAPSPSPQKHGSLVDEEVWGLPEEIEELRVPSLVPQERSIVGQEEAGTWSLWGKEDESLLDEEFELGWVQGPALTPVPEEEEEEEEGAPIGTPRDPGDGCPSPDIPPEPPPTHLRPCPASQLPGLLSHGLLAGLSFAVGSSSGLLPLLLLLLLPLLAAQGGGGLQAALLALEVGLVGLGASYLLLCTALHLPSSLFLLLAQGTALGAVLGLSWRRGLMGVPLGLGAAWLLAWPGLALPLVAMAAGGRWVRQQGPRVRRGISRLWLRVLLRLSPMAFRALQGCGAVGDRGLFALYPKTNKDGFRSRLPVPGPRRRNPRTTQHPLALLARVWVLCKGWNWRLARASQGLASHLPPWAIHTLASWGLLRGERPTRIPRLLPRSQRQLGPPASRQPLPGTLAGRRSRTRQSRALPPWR
T3 sequence (O60307 whole entry): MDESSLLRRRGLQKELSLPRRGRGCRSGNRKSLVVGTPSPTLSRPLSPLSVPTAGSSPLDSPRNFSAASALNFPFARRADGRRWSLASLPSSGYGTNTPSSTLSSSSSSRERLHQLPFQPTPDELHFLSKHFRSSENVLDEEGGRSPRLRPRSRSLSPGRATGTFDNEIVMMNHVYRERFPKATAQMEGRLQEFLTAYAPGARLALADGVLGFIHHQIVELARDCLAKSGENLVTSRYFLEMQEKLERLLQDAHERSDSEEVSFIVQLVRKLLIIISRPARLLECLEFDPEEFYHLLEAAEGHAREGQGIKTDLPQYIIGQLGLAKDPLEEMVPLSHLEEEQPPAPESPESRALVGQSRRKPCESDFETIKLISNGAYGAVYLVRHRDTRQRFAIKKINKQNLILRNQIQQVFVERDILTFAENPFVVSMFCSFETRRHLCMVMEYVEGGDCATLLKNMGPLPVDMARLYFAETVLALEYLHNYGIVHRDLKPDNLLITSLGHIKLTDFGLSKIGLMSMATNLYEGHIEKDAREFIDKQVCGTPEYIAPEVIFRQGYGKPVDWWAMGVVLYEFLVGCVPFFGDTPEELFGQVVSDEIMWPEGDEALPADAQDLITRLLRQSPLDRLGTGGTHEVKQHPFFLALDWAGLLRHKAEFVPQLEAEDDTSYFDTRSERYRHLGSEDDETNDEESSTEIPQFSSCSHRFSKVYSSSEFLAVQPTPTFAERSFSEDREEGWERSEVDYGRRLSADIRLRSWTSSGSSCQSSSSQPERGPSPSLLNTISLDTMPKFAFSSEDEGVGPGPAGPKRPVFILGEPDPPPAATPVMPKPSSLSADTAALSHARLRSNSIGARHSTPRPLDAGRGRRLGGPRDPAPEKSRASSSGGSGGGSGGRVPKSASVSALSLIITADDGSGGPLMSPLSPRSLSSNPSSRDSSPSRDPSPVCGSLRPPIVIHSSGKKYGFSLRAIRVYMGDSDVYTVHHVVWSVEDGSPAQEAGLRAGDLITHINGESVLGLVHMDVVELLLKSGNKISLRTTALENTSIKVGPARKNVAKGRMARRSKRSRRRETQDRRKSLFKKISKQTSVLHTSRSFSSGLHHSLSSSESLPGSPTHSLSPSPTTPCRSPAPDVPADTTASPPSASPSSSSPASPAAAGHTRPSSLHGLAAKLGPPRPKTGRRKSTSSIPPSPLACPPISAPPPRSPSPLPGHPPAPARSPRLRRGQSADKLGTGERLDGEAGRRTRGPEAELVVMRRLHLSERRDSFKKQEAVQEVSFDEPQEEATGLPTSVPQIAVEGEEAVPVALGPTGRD
T5 sequence (Q9HBY8 whole entry): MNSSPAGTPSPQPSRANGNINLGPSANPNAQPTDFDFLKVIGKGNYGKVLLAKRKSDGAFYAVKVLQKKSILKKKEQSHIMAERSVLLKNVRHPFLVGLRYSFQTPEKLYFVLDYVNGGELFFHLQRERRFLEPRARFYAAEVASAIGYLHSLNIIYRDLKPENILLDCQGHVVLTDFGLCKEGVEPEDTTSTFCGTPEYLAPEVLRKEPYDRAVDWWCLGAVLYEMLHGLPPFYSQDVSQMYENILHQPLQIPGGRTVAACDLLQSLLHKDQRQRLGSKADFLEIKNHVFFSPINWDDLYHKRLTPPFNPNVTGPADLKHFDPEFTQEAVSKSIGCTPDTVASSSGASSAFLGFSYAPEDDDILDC

Structure (SMILES): CCN1CCN(C(=O)c2ccc(Nc3ncc(F)c(-c4ccc5nc(N(C)C)sc5c4)n3)nc2)CC1 [YK-2-69]
- log2(fc) KLF6 (ENSG00000067082) (DU145 cells [1]): -1
- log2(fc) MT-ND6 (ENSG00000198695) (DU145 cells [1]): 1.099
- log2(fc) PLK2 (ENSG00000145632) (DU145 cells [1]): -1.04
- log2(fc) TAGLN (ENSG00000149591) (DU145 cells [1]): -2.064
- IC50 (DYRK4): > 1 µM
- % Inhibition DYRK4 (DYRK4; 0.000762079 µM): 1.66%
- % Inhibition DYRK4 (DYRK4; 0.00228624 µM): -2.93% and -3.51%
- % Inhibition DYRK4 (DYRK4; 0.00685871 µM): 3.37%
- % Inhibition DYRK4 (DYRK4; 0.0205761 µM): 5.66%
- % Inhibition DYRK4 (DYRK4; 0.0617284 µM): 18.67%
- % Inhibition DYRK4 (DYRK4; 0.185185 µM): 25.42%
- % Inhibition DYRK4 (DYRK4; 0.555556 µM): 42.15%
- % Inhibition DYRK4 (DYRK4; 1.66667 µM): 56.81%
- % Inhibition DYRK4 (DYRK4; 5 µM): 64.30%
- inhibition at 0.000762079 µM (DYRK4; read-out: % Inhibition DYRK4, 0.000762079 µM, duplicates): 2.99%
- inhibition at 0.00685871 µM (DYRK4; read-out: % Inhibition DYRK4, 0.00685871 µM, duplicates): 4.77%
- inhibition at 0.0205761 µM (DYRK4; read-out: % Inhibition DYRK4, 0.0205761 µM, duplicates): 7.57%
- inhibition at 0.0617284 µM (DYRK4; read-out: % Inhibition DYRK4, 0.0617284 µM, duplicates): 21.2%
- inhibition at 0.185185 µM (DYRK4; read-out: % Inhibition DYRK4, 0.185185 µM, duplicates): 29.7%
- inhibition at 0.555556 µM (DYRK4; read-out: % Inhibition DYRK4, 0.555556 µM, duplicates): 42.1%
- inhibition at 1.66667 µM (DYRK4; read-out: % Inhibition DYRK4, 1.66667 µM, duplicates): 54.7%
- inhibition at 5 µM (DYRK4; read-out: % Inhibition DYRK4, 5 µM, duplicates): 64.8%
- selectivity over DYRK4 (DYRK4; vs DYRK2): more than 100 fold
- IC50 (DYRK1A): > 1 µM
- % Inhibition DYRK1A (DYRK1A; 0.000508053 µM, duplicates): -3.57% and 0.43%
- % Inhibition DYRK1A (DYRK1A; 0.00152416 µM, duplicates): -1.37% and 1.70%
- % Inhibition DYRK1A (DYRK1A; 0.00457247 µM, duplicates): 3.49% and -1.24%
- % Inhibition DYRK1A (DYRK1A; 0.0137174 µM, duplicates): 0.24% and -4.62%
- % Inhibition DYRK1A (DYRK1A; 0.0411523 µM, duplicates): -1.12% and -1.40%
- % Inhibition DYRK1A (DYRK1A; 0.123457 µM, duplicates): 14.11%
- inhibition at 0.123457 µM (DYRK1A; 0.123457 µM, duplicates): 10.3%
- % Inhibition DYRK1A (DYRK1A; 0.37037 µM, duplicates): 34.28%
- inhibition at 0.37037 µM (DYRK1A; 0.37037 µM, duplicates): 26%
- % Inhibition DYRK1A (DYRK1A; 1.11111 µM, duplicates): 40.80%
- inhibition at 1.11111 µM (DYRK1A; 1.11111 µM, duplicates): 45.5%
- % Inhibition DYRK1A (DYRK1A; 3.33333 µM, duplicates): 66.09%
- inhibition at 3.33333 µM (DYRK1A; 3.33333 µM, duplicates): 64.9%
- % Inhibition DYRK1A (DYRK1A; 10 µM, duplicates): 69.07%
- inhibition at 10 µM (DYRK1A; 10 µM, duplicates): 68.2%
- selectivity over DYRK1A (DYRK1A; vs DYRK2): more than 100 fold
- remaining activity at 1 µM [2]: 88.1%
- % Enzyme Activity (relative to DMSO controls) [3]: 95.11% and 94.67%
- remaining activity at 1 µM [4]: 97.5%
- remaining activity at 1 µM [5]: 95.1%
- remaining activity at 1 µM [6]: 97%
- phosphorylation of 4E-BP1 (p-4E-BP1 (Thr37/46)): inhibited the phosphorylation of 4E-BP1 in a dose-dependent manner
- Relative mRNA levels CCNG2 (22Rv1 cells; 22Rv1, 1 μM): 2.36 and 2.34 and 2.68
- Relative mRNA levels GRWD1 (22Rv1 cells; 22Rv1, 1 μM): 0.83 and 0.9 and 0.89
- Relative mRNA levels RRS1 (22Rv1 cells; 22Rv1, 1 μM): 0.87 and 0.83 and 0.82
- Relative mRNA levels YPEL3 (22Rv1 cells; 22Rv1, 1 μM): 1.18 and 1.26 and 1.19
- Relative mRNA levels CCNG2 (22Rv1 cells; 22Rv1, 2 μM): 4.36 and 5.2 and 4.62
- Relative mRNA levels GRWD1 (22Rv1 cells; 22Rv1, 2 μM): 0.79 and 0.78 and 0.7
- Relative mRNA levels RRS1 (22Rv1 cells; 22Rv1, 2 μM): 0.73 and 0.77 and 0.71
- Relative mRNA levels YPEL3 (22Rv1 cells; 22Rv1, 2 μM): 1.68 and 1.63 and 1.74
- Relative mRNA levels CCNG2 (22Rv1 cells; 22Rv1, 4 μM): 8.94 and 9.9 and 8.92
- Relative mRNA levels GRWD1 (22Rv1 cells; 22Rv1, 4 μM): 0.69 and 0.68 and 0.62
- Relative mRNA levels RRS1 (22Rv1 cells; 22Rv1, 4 μM): 0.63 and 0.68
- Relative mRNA levels YPEL3 (22Rv1 cells; 22Rv1, 4 μM): 2.48 and 2.53 and 2.64
- Relative mRNA levels CCNG2 (DU145 cells [7]; DU145, 2 μM): 1.61 and 1.59 and 1.77
- Relative mRNA levels GRWD1 (DU145 cells [7]; DU145, 2 μM): 0.86 and 0.88 and 0.9
- Relative mRNA levels RRS1 (DU145 cells [7]; DU145, 2 μM): 0.88 and 0.78 and 0.86
- Relative mRNA levels YPEL3 (DU145 cells [7]; DU145, 2 μM): 1.25 and 1.23 and 1.29
- Relative mRNA levels CCNG2 (DU145 cells [7]; DU145, 4 μM): 1.7 and 1.66 and 1.89
- Relative mRNA levels GRWD1 (DU145 cells [7]; DU145, 4 μM): 0.79 and 0.71
- Relative mRNA levels RRS1 (DU145 cells [7]; DU145, 4 μM): 0.68 and 0.7 and 0.71
- Relative mRNA levels YPEL3 (DU145 cells [7]; DU145, 4 μM): 2.68 and 2.63 and 2.74
- Relative mRNA levels CCNG2 (DU145 cells [7]; DU145, 8 μM): 1.91 and 1.83 and 2.04
- Relative mRNA levels GRWD1 (DU145 cells [7]; DU145, 8 μM): 0.58 and 0.63 and 0.67
- Relative mRNA levels RRS1 (DU145 cells [7]; DU145, 8 μM): 0.58 and 0.65
- Relative mRNA levels YPEL3 (DU145 cells [7]; DU145, 8 μM): 3.48 and 3.53 and 3.64
